Data reported in PubChem BioAssay AID434951 (Broad Institute, 2010).
The source made the active and inactive calls.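 Rule for the calls: active = a fitted half-maximal concentration EC50 for the rise in nuclear signal no higher than ten times the top dose tested; inconclusive = flat fit with activity between 30% and 70%, or unusable fit; inactive = EC50 beyond ten times the top dose.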

Molecular target: Hypoxia-inducible factor 1-alpha (Homo sapiens) (UniProt Q16665)
Test: activators of HIF1alpha nuclear accumulation, confirmation, imaging, fluorescence, U2OS GFP-HIF1alpha (AID 434951)
Settings: U2OS GFP-HIF1alpha nuclear intensity, high-content imaging

Hypoxia-inducible factor 1-alpha (Homo sapiens), sequence (Q16665 whole entry, looked up): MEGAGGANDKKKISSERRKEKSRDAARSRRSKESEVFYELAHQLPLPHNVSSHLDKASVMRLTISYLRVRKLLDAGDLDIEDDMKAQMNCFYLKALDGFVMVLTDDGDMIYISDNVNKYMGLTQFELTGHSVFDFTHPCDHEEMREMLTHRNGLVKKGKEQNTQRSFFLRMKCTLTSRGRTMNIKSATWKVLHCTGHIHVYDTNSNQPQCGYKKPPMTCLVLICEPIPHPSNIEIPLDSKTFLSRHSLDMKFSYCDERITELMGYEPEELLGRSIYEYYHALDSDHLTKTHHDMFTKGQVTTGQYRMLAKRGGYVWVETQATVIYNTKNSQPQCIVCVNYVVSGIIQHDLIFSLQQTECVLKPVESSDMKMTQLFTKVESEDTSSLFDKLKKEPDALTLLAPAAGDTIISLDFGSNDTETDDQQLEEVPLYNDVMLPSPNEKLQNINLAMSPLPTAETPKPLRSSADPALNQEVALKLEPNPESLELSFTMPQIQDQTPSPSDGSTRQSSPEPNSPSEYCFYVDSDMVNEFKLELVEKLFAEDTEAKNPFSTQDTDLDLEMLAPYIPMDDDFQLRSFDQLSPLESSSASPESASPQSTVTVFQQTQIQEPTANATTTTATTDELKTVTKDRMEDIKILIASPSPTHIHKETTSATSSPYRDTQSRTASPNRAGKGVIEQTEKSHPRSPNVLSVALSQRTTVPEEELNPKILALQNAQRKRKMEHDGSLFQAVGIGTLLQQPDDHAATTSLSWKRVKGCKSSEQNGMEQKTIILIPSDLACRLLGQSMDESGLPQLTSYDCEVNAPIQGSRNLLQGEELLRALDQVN

**Q.** For `Oc1ccc(/C=N/NC(=S)NC2CC3CCC2C3)cc1` (stereo not drawn), which EC50 is on record?
**A.** > 35 µM (inactive)

**Q.** Which EC50 does the source give for `COc1ccc(NC(=O)Nc2ccc(CC(=O)O)cc2)cc1` here?
**A.** > 35 µM (inactive)

**Q.** How did the EC50 turn out when `Cc1ccc(/C=N/NC(=O)c2ccc(Br)o2)s1` was run?
**A.** > 35 µM (inactive)

**Q.** Which EC50 does the source give for `O=C(N/N=C/c1ccc(F)cc1)c1cc(-c2ccc3c(c2)OCO3)n[nH]1` here?
**A.** 16.2 µM

**Q.** For `CCN(CC)CCOc1ccc2c(c1)C(=NO)c1cc(OCCN(CC)CC)ccc1-2`, which EC50 is on record?
**A.** > 35 µM (inactive)

**Q.** With `Cc1ccc(C(=O)Nc2c3c(nn2C(C)(C)C)CS(=O)(=O)C3)cc1C` as the compound, how does the EC50 read?
**A.** > 35 µM (inactive)

**Q.** Which EC50 does the source give for `CCCNC(=O)c1cc(-c2ccco2)on1` here?
**A.** 5.66 µM

**Q.** How did the EC50 turn out when `Cn1c(CO)nc2c3ccccc3ccc21` was run?
**A.** > 35 µM (inactive)

**Q.** How did the EC50 turn out when `CC(C)C(=O)NC(c1cccc([N+](=O)[O-])c1)c1ccc2cccnc2c1O` (stereo not drawn) was run?
**A.** 2.3 µM

**Q.** `COc1ccc(C(NC(C)=O)c2ccc3cccnc3c2O)c(OC)c1` (stereo not drawn) was tested. Which EC50 did it give?
**A.** 10.9 µM

**Q.** For `CNc1nc(-c2ccccn2)nnc1-c1ccccc1`, which EC50 is on record?
**A.** 7.4 µM

**Q.** With `Cn1c(SCC(=O)Nc2ccccc2)nnc1-c1ccc(NC(=O)CCc2ccccc2)cc1` as the compound, how does the EC50 read?
**A.** > 35 µM (inactive)

**Q.** How did the EC50 turn out when `COc1ccccc1-c1cc(C(F)(F)F)nc(S(=O)(=O)CCCC(=O)N2CCCCC2C)n1` (stereo not drawn) was run?
**A.** > 35 µM (inactive)

**Q.** How did the EC50 turn out when `C[C@@H]1O[C@@H](OC[C@H]2O[C@@H](Oc3c(-c4ccc(O)cc4)oc4cc(O)cc(O)c4c3=O)[C@H](O)[C@@H](O)[C@@H]2O)[C@H](O)[C@H](O)[C@H]1O` was run?
**A.** > 35 µM (inactive)

**Q.** Which EC50 does the source give for `Cn1ncc(Cl)c1C(=O)Nc1nc2ccc(Cl)cc2s1` here?
**A.** > 35 µM (inactive)

**Q.** `Cc1cccc(C(=O)O/N=C(\N)c2ccc(Cl)cc2)c1` was tested. Which EC50 did it give?
**A.** > 35 µM (inactive)

**Q.** With `NS(=O)(=O)c1ccc(CNC(=O)c2csc3c2CCCC3)cc1` as the compound, how does the EC50 read?
**A.** > 35 µM (inactive)

**Q.** For `CCOC(=O)c1cc2c(ccn2C)n1CC(=O)N1CCN(c2ccccc2)CC1`, which EC50 is on record?
**A.** > 35 µM (inactive)

**Q.** How did the EC50 turn out when `Cc1cc(NC(=O)CCN2C(=O)/C(=C\c3ccccc3)SC2=S)no1` was run?
**A.** 34.4 µM

**Q.** `O=C(O)c1cccc(N2CCCC2=O)c1` was tested. Which EC50 did it give?
**A.** > 35 µM (inactive)

**Q.** `CC(=O)c1cccc(NC(=O)CSC(=O)c2ccccc2)c1` was tested. Which EC50 did it give?
**A.** > 35 µM (inactive)

**Q.** How did the EC50 turn out when `COc1cccc(/C=N/NC(=O)c2ccc([N+](=O)[O-])cc2Cl)c1O` was run?
**A.** > 35 µM (inactive)

**Q.** Which EC50 does the source give for `COc1ccc(NC(=S)N2CCN(C(=O)c3ccccc3)CC2)cc1` here?
**A.** > 35 µM (inactive)

**Q.** With `N#Cc1ccccc1S(=O)(=O)N1CCN(c2cnccn2)CC1` as the compound, how does the EC50 read?
**A.** > 35 µM (inactive)

**Q.** Which EC50 does the source give for `O=C(NC(=S)Nc1ccccn1)c1cc(-c2ccccc2)nc2ccccc12` here?
**A.** > 35 µM (inactive)

**Q.** Which EC50 does the source give for `O=C(NCc1ccccc1)C(=O)c1cn(CC(=O)N2CCOCC2)c2ccccc12` here?
**A.** > 35 µM (inactive)

**Q.** For `O=C(Nc1nc2ccc([N+](=O)[O-])cc2s1)c1c(F)cccc1F`, which EC50 is on record?
**A.** > 35 µM (inactive)

**Q.** `CCCCCCN1C=CC=C/C1=C/C=C(C#N)C#N` was tested. Which EC50 did it give?
**A.** > 35 µM (inactive)

**Q.** For `CC(C)COc1ccc(C(=O)Nc2ccc([N+](=O)[O-])cc2)cc1`, which EC50 is on record?
**A.** > 35 µM (inactive)

**Q.** For `COc1ccc(C(CC(=O)Nc2ccccc2OC)n2cccc2)cc1` (stereo not drawn), which EC50 is on record?
**A.** > 35 µM (inactive)

**Q.** `O=C1CSCN1c1ccc(Cl)cc1` was tested. Which EC50 did it give?
**A.** > 35 µM (inactive)

**Q.** Which EC50 does the source give for `Cc1cc(C)nc(Sc2ncnc(N)c2[N+](=O)[O-])n1` here?
**A.** 20.6 µM

**Q.** For `O=[N+]([O-])c1ccc(O)c(/C=N/Nc2ccccn2)c1`, which EC50 is on record?
**A.** 6.39 µM

**Q.** How did the EC50 turn out when `Cc1ccc2nc(-c3ccccn3)c(Nc3ccccc3C)n2c1` was run?
**A.** 6.13 µM

**Q.** Which EC50 does the source give for `CC(=O)Nc1ccc(Nc2nc(C)c([N+](=O)[O-])c(Nc3ccc(NC(C)=O)cc3)n2)cc1` here?
**A.** > 35 µM (inactive)

**Q.** Which EC50 does the source give for `COc1ccccc1N1CCN(CCCNC(=O)C2CCCN(c3ncnc4c3nc3n4CCCCC3)C2)CC1` (stereo not drawn) here?
**A.** > 35 µM (inactive)

**Q.** Which EC50 does the source give for `O=C(NC(=S)Nc1ccccn1)c1cccc([N+](=O)[O-])c1` here?
**A.** > 35 µM (inactive)

**Q.** `Cc1ccc2nc(-c3ccccc3NC(=O)CCC(=O)O)c(=O)[nH]c2c1` was tested. Which EC50 did it give?
**A.** > 35 µM (inactive)

**Q.** `COc1cccc(C(=O)N/N=C(/c2ccccc2)c2ccccn2)c1` was tested. Which EC50 did it give?
**A.** 6.04 µM

**Q.** How did the EC50 turn out when `COc1ccc(C2NN=C(c3ccc(C)cc3)S2)cc1` (stereo not drawn) was run?
**A.** > 35 µM (inactive)

**Q.** With `CCOc1ccc(NC(=O)COc2ccccc2)c([N+](=O)[O-])c1` as the compound, how does the EC50 read?
**A.** > 35 µM (inactive)

**Q.** `O=C(Nc1ccc(Cl)cc1)NN1CC(=O)N(c2cccc(C(F)(F)F)c2)CC1=O` was tested. Which EC50 did it give?
**A.** > 35 µM (inactive)

**Q.** For `COc1cc(C2CC(=O)N3CN(Cc4ccccc4)CSC3=C2C#N)ccc1OCc1ccccc1` (stereo not drawn), which EC50 is on record?
**A.** > 35 µM (inactive)

**Q.** How did the EC50 turn out when `CCN(CC)CCNCc1nc2ccccc2c(=O)n1-c1ccc(F)cc1` was run?
**A.** > 35 µM (inactive)

**Q.** How did the EC50 turn out when `CC(C(=O)Nc1ccccc1-c1ccccc1)N1CCN(C(=O)c2ccccc2)CC1` (stereo not drawn) was run?
**A.** > 35 µM (inactive)

**Q.** With `O=C(Nc1ccc2ccccc2c1)c1ccccc1O` as the compound, how does the EC50 read?
**A.** > 35 µM (inactive)

**Q.** `COc1ccc(N=C2C(=O)N3CCCc4cccc2c43)cc1` was tested. Which EC50 did it give?
**A.** > 35 µM (inactive)

**Q.** `COc1ccc(C(=O)CCNc2ccc(F)cc2)cc1` was tested. Which EC50 did it give?
**A.** > 35 µM (inactive)

**Q.** How did the EC50 turn out when `CCC(=O)NC(c1cccs1)c1ccc2cccnc2c1O` (stereo not drawn) was run?
**A.** 5.48 µM

**Q.** With `O=C(C[n+]1ccn(CCCNP2(=O)C=C(c3ccccc3)OC(c3ccccc3)=C2)c1)c1cccs1` as the compound, how does the EC50 read?
**A.** > 35 µM (inactive)

**Q.** How did the EC50 turn out when `O=C(N/N=C/c1ccc(O)c(O)c1O)/C(=C/c1ccc([N+](=O)[O-])cc1)NC(=O)c1ccccc1` was run?
**A.** > 35 µM (inactive)

**Q.** Which EC50 does the source give for `C=CCc1c(C)nc2c(-c3ccccc3)cnn2c1N1CCOCC1` here?
**A.** > 35 µM (inactive)

**Q.** With `O=C(NCCSc1c[nH]c2ccccc12)c1ccc(Br)o1` as the compound, how does the EC50 read?
**A.** > 35 µM (inactive)

**Q.** `Cc1c(Cl)cccc1NC(=S)N/N=C/c1ccccc1Cl` was tested. Which EC50 did it give?
**A.** 14.8 µM

**Q.** For `CCC(=O)NC(c1ccc(Cl)cc1Cl)c1ccc2cccnc2c1O` (stereo not drawn), which EC50 is on record?
**A.** 6.22 µM

**Q.** With `Cc1ccc(N2CC(=O)Nc3c(sc4nc(C)cc(C)c34)C2=O)cc1` as the compound, how does the EC50 read?
**A.** > 35 µM (inactive)

**Q.** How did the EC50 turn out when `COc1ccccc1/C=C/C(=O)c1ccccc1` was run?
**A.** > 35 µM (inactive)

**Q.** For `CC(=O)NC(c1ccc2ccccc2c1)c1ccc2cccnc2c1O` (stereo not drawn), which EC50 is on record?
**A.** 8.56 µM

**Q.** Which EC50 does the source give for `CC(C)=CCSc1nnc([C@@H](N)Cc2c[nH]c3ccccc23)o1` here?
**A.** > 35 µM (inactive)

**Q.** With `C=CCOc1ccc(/C=C2\SC(N)=NC2=O)cc1OC` as the compound, how does the EC50 read?
**A.** > 35 µM (inactive)

**Q.** How did the EC50 turn out when `CCOc1ccc(CCNC(=O)COC(=O)Cn2nc(C)c([N+](=O)[O-])c2C)cc1OCC` was run?
**A.** > 35 µM (inactive)

**Q.** With `Cc1cc(NC(=O)c2ccccc2)n(-c2nc3ccccc3[nH]2)n1` as the compound, how does the EC50 read?
**A.** 27 µM

**Q.** With `COc1ccc(CN2CCNC(=O)C2CC(=O)NC2CCCC2)c(OC)c1` (stereo not drawn) as the compound, how does the EC50 read?
**A.** > 35 µM (inactive)

**Q.** For `CCCCC(=O)NC(c1ccc(N(C)C)cc1)c1ccc2cccnc2c1O` (stereo not drawn), which EC50 is on record?
**A.** 3.09 µM

**Q.** How did the EC50 turn out when `COc1ccccc1OCc1nnc(SCC(=O)NCc2ccco2)n1-c1ccccc1` was run?
**A.** > 35 µM (inactive)

**Q.** How did the EC50 turn out when `N#CCC(=O)N/N=C/c1ccc(SCC(=O)Nc2ccccc2)o1` was run?
**A.** > 35 µM (inactive)

**Q.** How did the EC50 turn out when `CCN(CC)c1ccc(/C=N/NC(=O)c2ccoc2C)c(O)c1` was run?
**A.** 10.9 µM

**Q.** For `COc1ccc(O)c(/C=N/NC(=O)c2ccc(OCc3cccc(Br)c3)cc2)c1`, which EC50 is on record?
**A.** 5.72 µM

**Q.** With `N/C(=N\OC(=O)Cc1cccs1)c1ccccc1` as the compound, how does the EC50 read?
**A.** > 35 µM (inactive)

**Q.** With `CCOC(=O)C1(C)NC(c2ccc(OC)cc2OC)C2C(=O)N(CC)C(=O)C21` (stereo not drawn) as the compound, how does the EC50 read?
**A.** > 35 µM (inactive)

**Q.** How did the EC50 turn out when `COCc1c(C(=O)N/N=C(\C)c2ccc(Cl)s2)nnn1-c1nonc1N` was run?
**A.** > 35 µM (inactive)

**Q.** For `O=C(C1=NN[C@@H]2C(=O)N(c3cccc(C(F)(F)F)c3)C(=O)[C@H]12)C(c1ccccc1)c1ccccc1`, which EC50 is on record?
**A.** > 35 µM (inactive)

**Q.** `CCOc1cc(/C=N/NC(=O)c2cccnc2)ccc1OCc1ccc(C(=O)OC)o1` was tested. Which EC50 did it give?
**A.** > 35 µM (inactive)
